Measured values as given in PMC4344499 (2015).

Test system: Z33 G4 (radiolabeled) (DNA, G4) AAAGTGATGGTGGTGGGGGAAGGATTTTCGAAC
Assay: EMSA, displacement of bound DHX36 protein
Conditions: 100 mM KCl, 10 mM NaCl, 3.3 mM MgCl2, 10 mM EDTA; K-Res buffer pH 7.8, 37 °C, no ATP; DHX36 (4 nM) displaced from 4 nM G4; poly(dI:dC) present

- IC50: 33 nM
SMILES: NCCOc1cc(C(=O)Nc2cc(OCCN)c3ccccc3n2)nc(C(=O)Nc2cc(OCCN)c3ccccc3n2)c1
